Experimental data taken from patent publication EP4489718B1, “METHOD FOR ENCAPSULATING A HYDROPHOBIC COMPOUND, SUSPENSION OF STRUCTURED LIPID PARTICLES ACCORDING TO THIS METHOD, AND USES OF SAID SUSPENSION” (SEDERMA, priority 2022, dated 2023).
Read-outs that look alike come from different tables or passages of the source.

Tests used:
[1] = type: physicochemical
Protocol: Aim: to study whether the encapsulated retinol according to the invention supported UV irradiation and to compare with the non-encapsulated free retinol (solubilized in soybean oil).
Protocol: two samples, one containing free retinol and the other encapsulated retinol, were irradiated for 1 hour at about 40cm from the bulb of the solar lamp.
Retinol assay: by HPLC (UV detection at 325nm), the samples having been solubilized and diluted in isopropyl alcohol and the quantification having been carried out using a standard curve ranging from 2 to 150 ppm of retinol.

[2] = Stability study on storage (retinol content by HPLC, colour, pH, particle size); type: physicochemical
Protocol: Samples were diluted in isopropanol. […] A calibration curve was performed. For an accelerated stability study, suspension samples according to the invention were stored for 365 days at room temperature (RT), 180 days at 40°C, 90 days at 5°C and 60 days at 50°C. The long-term stability study was evaluated at RT. Samples were analysed for characterization parameters at test times 0, 7, 14, 21, 30, 60, and 90, 180 and 365 days, depending on each storage condition. At each analysis time, a new bottle was opened for the first time. To assess the impact of product handling during stability, an additional bottle of each sample was stored at RT. This same bottle was opened and handled under an air atmosphere at each analysis time (7, 14, 21, 30, 60 and 90 days for all samples for RT) and the results were compared to the cases of the bottles newly opened for each analysis. All samples were handled without direct contact with light and under normal air conditions. No inert gas was used either to fill the bottles or to handle any sample.

[3] = physchem; type: physicochemical
Excerpt: The Franz diffusion cell is the device most used to examine the release profiles of an active ingredient encapsulated in the capsules according to the invention. […] The product to be tested is placed in the upper chamber while the lower chamber collects the recipient fluid which has passed through the membrane. The rate and mechanism of release can be obtained by mathematical modelling. The rate can be calculated using the following first-order equation: […] And the release mechanism can be obtained using the Korsmeyer-Peppas model equation: Mt/M∞ = […] [formula] In which: • t is the release time • Mt is the quantity of released active at t time • M∞ is the total quantity of released active • Mt/M∞ being the fraction of released active at t time; • k is a kinetic constant, a measure of the release rate; and • n the diffusional exponent which gives an indication of the release mechanism of the active and takes on different values depending on the geometry of the release device. […] Selected membrane: […] Eight Franz cells containing the release medium and the membrane were prepared and placed in a temperature-controlled water bath of 32°C. […] The amount added to the membrane was 20% of the saturation concentration to ensure flow conditions. Samples were taken at selected intervals of 0.5 to 76 h with replacement of fresh medium. All samples collected were analysed for retinol content by HPLC on the day of the experiment. […] The mean of the four cells in both cases was plotted against time and used to apply the mathematical models. […] The release mechanism was obtained by the Korsmeyer-Peppas equation.

Q: What does the source list for `CC1=C(/C=C/C(C)=C/C=C/C(C)=C/CO)C(C)(C)CCC1` [Free retinol, retinol]?
A: Actual content of retinol (in weight %) ([1]; After 1h of irradiation, about 40cm from solar lamp): 5.72 +/- 0.07 weight %; Actual content of retinol (in weight %) ([1]; Control (not irradiated)): 10.49 +/- 0.34 weight %; Retinol content in w/w % ([2]; storage 5°C, 0 days, suspension: new bottle for each test): 3.11 w/w %; Retinol content in w/w % ([2]; storage 5°C, 7 days, suspension: new bottle for each test): 3.14 w/w %; Retinol content in w/w % ([2]; storage 5°C, 14 days): 2.77 w/w %; Retinol content in w/w % ([2]; storage 5°C, 21 days): 0.42 w/w %; Retinol content in w/w % ([2]; storage 5°C, 30 days, suspension: new bottle for each test): 0.0 w/w %; Retinol content in w/w % ([2]; storage 40°C, 0 days, suspension: new bottle for each test): 3.11 w/w %; Retinol content in w/w % ([2]; storage 40°C, 7 days, suspension: new bottle for each test): 2.79 w/w %; Retinol content in w/w % ([2]; storage 40°C, 14 days): 0.89 w/w %; Retinol content in w/w % ([2]; storage 40°C, 21 days): 0.0 w/w %; Retinol content in w/w % ([2]; storage 40°C, 30 days, suspension: new bottle for each test): 0.0 w/w %; Retinol content in w/w % ([2]; storage 50°C, 0 days, suspension: new bottle for each test): 3.11 w/w %; Retinol content in w/w % ([2]; storage 50°C, 7 days, suspension: new bottle for each test): 2.51 w/w %; Retinol content in w/w % ([2]; storage 50°C, 14 days, suspension: new bottle for each test): 0.10 w/w %; Retinol content in w/w % ([2]; storage 50°C, 21 days, suspension: new bottle for each test): 0.0 w/w %; Retinol content in w/w % ([2]; storage 50°C, 30 days, suspension: new bottle for each test): 0.0 w/w %; Retinol content in w/w % ([2]; storage RT, 0 days, suspension: new bottle for each test): 3.11 w/w %; Retinol content in w/w % ([2]; storage RT, 7 days, suspension: new bottle for each test): 2.76 w/w %; Retinol content in w/w % ([2]; storage RT, 14 days, suspension: new bottle for each test): 2.40 w/w %; Retinol content in w/w % ([2]; storage RT, 21 days, suspension: new bottle for each test): 0.23 w/w %; Retinol content in w/w % ([2]; storage RT, 30 days, suspension: new bottle for each test): 0.25 w/w %; retinol degradation peaks in the chromatograms of the release samples [3]: degradation peaks from 10h; half-life ([3]; 3% tween 80 in water): 2.03 h; release rate ([3]; Franz cell, PVDF 0.1 µm membrane, 3% Tween 80 / 97% water, 32°C, first-order model): 0.00089 min⁻¹
